Assay results from PubChem BioAssay AID2060605 (Molecular Pharmacology Branch, DTP, NCI, 2025).

Test system: 947758-054-R-J2-PDC spheroid growth, percent test/control
Assay: Anticancer human tumor 947758-054-R-J2-PDC patient-derived colon adenocarcinoma cell line growth inhibition [CLK]
Settings: spheroids with HUVEC and MSC; for IC50: curve of first compound; for viability, T/C: stronger effect = lower value
Procedure, shortened: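 Multi-cell-type spheroids combined patient-derived tumor cells with HUVEC endothelial cells and human mesenchymal stem cells. Paired agents were dosed in half-log steps down from about clinical Cmax, or from 10 microM where Cmax was unknown.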
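Further: spheroids exposed to compounds for one week before readout.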
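Wherever viability, T/C is given: 100% = DMSO vehicle control wells.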

**Q.** Which IC50 (second compound 0.0316 µM) does the source give for `CC(C)CC(NC(=O)C(Cc1ccccc1)NC(=O)c1cnccn1)B(O)O` (centres undefined) + CNC(=O)c1ccc(Nc2nc(OC3CCCC3)c3c(-c4ccc5nc(C)oc5c4)c[nH]c3n2)c(OC)c1 here?
**A.** 1.85 nM

**Q.** And the IC50 (second compound 0.1 µM)?
**A.** 1.66 nM

**Q.** What about the IC50 (second compound 0.316 µM) of the same compound?
**A.** 1.72 nM

**Q.** And the IC50 (second compound 1 µM)?
**A.** 1.42 nM

**Q.** What about the IC50 (second compound 3.16 µM) of the same compound?
**A.** < 0.949 nM

**Q.** What about the IC50 (second compound 10 µM) of the same compound?
**A.** < 0.949 nM

**Q.** And the viability, T/C (second compound 0.0316 µM, first compound 0.000949 µM)?
**A.** 117%

**Q.** And the viability, T/C (second compound 0.0316 µM, first compound 0.003 µM)?
**A.** 1.15%

**Q.** What about the viability, T/C (second compound 0.0316 µM, first compound 0.00949 µM) of the same compound?
**A.** 0.26%

**Q.** What about the viability, T/C (second compound 0.0316 µM, first compound 0.03 µM) of the same compound?
**A.** 0.29%

**Q.** And the viability, T/C (second compound 0.0316 µM, first compound 0.0949 µM)?
**A.** 0.3%

**Q.** And the viability, T/C (second compound 0.0316 µM, first compound 0.3 µM)?
**A.** 0.28%

**Q.** And the viability, T/C (second compound 0.1 µM, first compound 0.000949 µM)?
**A.** 89%

**Q.** What about the viability, T/C (second compound 0.1 µM, first compound 0.003 µM) of the same compound?
**A.** 8.66%

**Q.** And the viability, T/C (second compound 0.1 µM, first compound 0.00949 µM)?
**A.** 0.26%

**Q.** And the viability, T/C (second compound 0.1 µM, first compound 0.03 µM)?
**A.** 0.27%

**Q.** What about the viability, T/C (second compound 0.1 µM, first compound 0.0949 µM) of the same compound?
**A.** 0.25%

**Q.** And the viability, T/C (second compound 0.1 µM, first compound 0.3 µM)?
**A.** 1.66%

**Q.** And the viability, T/C (second compound 0.316 µM, first compound 0.000949 µM)?
**A.** 102%

**Q.** What about the viability, T/C (second compound 0.316 µM, first compound 0.003 µM) of the same compound?
**A.** 1.44%

**Q.** What about the viability, T/C (second compound 0.316 µM, first compound 0.00949 µM) of the same compound?
**A.** 0.22%

**Q.** What about the viability, T/C (second compound 0.316 µM, first compound 0.03 µM) of the same compound?
**A.** 0.22%

**Q.** What about the viability, T/C (second compound 0.316 µM, first compound 0.0949 µM) of the same compound?
**A.** 0.25%

**Q.** And the viability, T/C (second compound 0.316 µM, first compound 0.3 µM)?
**A.** 0.23%

**Q.** And the viability, T/C (second compound 1 µM, first compound 0.000949 µM)?
**A.** 75.7%

**Q.** And the viability, T/C (second compound 1 µM, first compound 0.003 µM)?
**A.** 2.99%

**Q.** What about the viability, T/C (second compound 1 µM, first compound 0.00949 µM) of the same compound?
**A.** 0.32%

**Q.** What about the viability, T/C (second compound 1 µM, first compound 0.03 µM) of the same compound?
**A.** 0.21%

**Q.** And the viability, T/C (second compound 1 µM, first compound 0.0949 µM)?
**A.** 0.26%

**Q.** What about the viability, T/C (second compound 1 µM, first compound 0.3 µM) of the same compound?
**A.** 0.46%

**Q.** And the viability, T/C (second compound 3.16 µM, first compound 0.000949 µM)?
**A.** 45.1%

**Q.** And the viability, T/C (second compound 3.16 µM, first compound 0.003 µM)?
**A.** 0.43%

**Q.** What about the viability, T/C (second compound 3.16 µM, first compound 0.00949 µM) of the same compound?
**A.** 0.21%

**Q.** What about the viability, T/C (second compound 3.16 µM, first compound 0.03 µM) of the same compound?
**A.** 0.19%

**Q.** What about the viability, T/C (second compound 3.16 µM, first compound 0.0949 µM) of the same compound?
**A.** 0.21%

**Q.** And the viability, T/C (second compound 3.16 µM, first compound 0.3 µM)?
**A.** 0.24%

**Q.** What about the viability, T/C (second compound 10 µM, first compound 0.000949 µM) of the same compound?
**A.** 38.8%

**Q.** And the viability, T/C (second compound 10 µM, first compound 0.003 µM)?
**A.** 0.32%

**Q.** What about the viability, T/C (second compound 10 µM, first compound 0.00949 µM) of the same compound?
**A.** 0.21%

**Q.** And the viability, T/C (second compound 10 µM, first compound 0.03 µM)?
**A.** 0.2%

**Q.** What about the viability, T/C (second compound 10 µM, first compound 0.0949 µM) of the same compound?
**A.** 0.23%

**Q.** And the viability, T/C (second compound 10 µM, first compound 0.3 µM)?
**A.** 0.35%

**Q.** Which results are given for `O=C(c1cc(Cc2n[nH]c(=O)c3ccccc23)ccc1F)N1CCN(C(=O)C2CC2)CC1` + CNC(=O)c1ccc(Nc2nc(OC3CCCC3)c3c(-c4ccc5nc(C)oc5c4)c[nH]c3n2)c(OC)c1?
**A.** IC50 (second compound 0.0316 µM): > 10000 nM; IC50 (second compound 0.1 µM): > 10000 nM; IC50 (second compound 0.316 µM): > 10000 nM; IC50 (second compound 1 µM): > 10000 nM; IC50 (second compound 3.16 µM): 156 nM; IC50 (second compound 10 µM): < 31.6 nM; viability, T/C (second compound 0.0316 µM, first compound 0.0316 µM): 101%; viability, T/C (second compound 0.0316 µM, first compound 0.1 µM): 97.3%; viability, T/C (second compound 0.0316 µM, first compound 0.316 µM): 96.3%; viability, T/C (second compound 0.0316 µM, first compound 1 µM): 93.5%; viability, T/C (second compound 0.0316 µM, first compound 3.16 µM): 113%; viability, T/C (second compound 0.0316 µM, first compound 10 µM): 80.9%; viability, T/C (second compound 0.1 µM, first compound 0.0316 µM): 110%; viability, T/C (second compound 0.1 µM, first compound 0.1 µM): 102%; viability, T/C (second compound 0.1 µM, first compound 0.316 µM): 100%; viability, T/C (second compound 0.1 µM, first compound 1 µM): 99.4%; viability, T/C (second compound 0.1 µM, first compound 3.16 µM): 110%; viability, T/C (second compound 0.1 µM, first compound 10 µM): 73.7%; viability, T/C (second compound 0.316 µM, first compound 0.0316 µM): 94.3%; viability, T/C (second compound 0.316 µM, first compound 0.1 µM): 94.8%; viability, T/C (second compound 0.316 µM, first compound 0.316 µM): 64.5%; viability, T/C (second compound 0.316 µM, first compound 1 µM): 71.5%; viability, T/C (second compound 0.316 µM, first compound 3.16 µM): 103%; viability, T/C (second compound 0.316 µM, first compound 10 µM): 65%; viability, T/C (second compound 1 µM, first compound 0.0316 µM): 63.2%; viability, T/C (second compound 1 µM, first compound 0.1 µM): 53%; viability, T/C (second compound 1 µM, first compound 0.316 µM): 53.7%; viability, T/C (second compound 1 µM, first compound 1 µM): 64.1%; viability, T/C (second compound 1 µM, first compound 3.16 µM): 69.2%; viability, T/C (second compound 1 µM, first compound 10 µM): 35.8%; viability, T/C (second compound 3.16 µM, first compound 0.0316 µM): 56.2%; viability, T/C (second compound 3.16 µM, first compound 0.1 µM): 43.6%; viability, T/C (second compound 3.16 µM, first compound 0.316 µM): 45.4%; viability, T/C (second compound 3.16 µM, first compound 1 µM): 52.7%; viability, T/C (second compound 3.16 µM, first compound 3.16 µM): 54%; viability, T/C (second compound 3.16 µM, first compound 10 µM): 37.4%; viability, T/C (second compound 10 µM, first compound 0.0316 µM): 47.9%; viability, T/C (second compound 10 µM, first compound 0.1 µM): 40.9%; viability, T/C (second compound 10 µM, first compound 0.316 µM): 41.5%; viability, T/C (second compound 10 µM, first compound 1 µM): 34.4%; viability, T/C (second compound 10 µM, first compound 3.16 µM): 35.2%; viability, T/C (second compound 10 µM, first compound 10 µM): 35.1%
